Test results published in PubChem BioAssay (NCI).
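Test compounds were applied to cells in 96-well plates for 48 hours at 5 doses. Here, GI50 denotes the concentration required for 50% inhibition of growth. TGI: total growth inhibition.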

Columns and labels:
Test in all cases: NCI anticancer screen, dose series, 48 h
[1] = test system: U251 CNS
[2] = test system: MDA-MB-435
[3] = test system: UACC-62 melanoma
[4] = test system: A498 renal
[5] = test system: OVCAR-3 ovarian
[6] = test system: DU-145 prostate
[7] = test system: SR leukemia
[8] = test system: IGROV1 ovarian
[9] = test system: K-562 leukemia
[10] = test system: MDA-MB-231 breast

Row | Compound | GI50 [1] [µM] | TGI [1] [µM] | GI50 [2] [µM] | TGI [2] [µM] | GI50 [3] [µM] | TGI [3] [µM] | GI50 [4] [µM] | TGI [4] [µM] | GI50 [5] [µM] | TGI [5] [µM] | GI50 [6] [µM] | TGI [6] [µM] | GI50 [7] [µM] | TGI [7] [µM] | GI50 [8] [µM] | TGI [8] [µM] | GI50 [9] [µM] | TGI [9] [µM] | GI50 [10] [µM] | TGI [10] [µM]
1 | COc1ccc(-c2csc(NC(=O)CSc3nc(C)c(-c4ccccc4)n3Nc3ccccc3)n2)cc1 | > 100 | > 100 | 5.77 | > 100 | 7.35 | > 100 | 31.2 | > 100 | 9.61 | > 100 | 18 | > 100 | 5.47 | > 100 | 4.25 | > 100 | 5.29 | > 100 | 13.3 | > 100
2 | c1ccc(C2=Nn3c(CCCCCCCCc4nnc5n4N=C(c4ccccc4)CS5)nnc3SC2)cc1 |  | 36.8 |  | > 100 |  | > 100 |  | > 96.1 |  | > 100 |  | > 100 |  | > 100 |  | > 100 |  | > 79.7 |  | 80.6
3 | Cc1cc2c(nn1)-c1ccccc1C2=O |  | > 10 |  | > 10 |  | > 10 |  | > 10 |  | > 10 |  | > 10 |  | > 10 |  | > 10 |  | > 10 |  | > 10
4 | CC12CC1C(c1cccc([N+](=O)[O-])c1)(c1cccc([N+](=O)[O-])c1)N=N2 (centres undefined) |  | 51 |  | > 100 |  | 44.1 |  | > 100 |  | > 100 |  | > 100 |  | 55.8 |  | 60.5 |  | > 100 |  | 39.1
5 | C=C(C)[C@@]1(O[Si](C)(C)C)CCCC[C@@H]1CC(Sc1ccccc1)Sc1ccccc1 |  | 30.7 |  | 31.6 |  | 26.9 |  | 34.5 |  | 27.7 |  | 29.7 |  | 31.5 |  | 32.7 |  | 41.2 |  | 32.1
6 | CC1=C[C@@H](C)C[C@]2(C)CC[C@H](O2)[C@]23CC[C@](C(=O)O)(C[C@H](O2)[C@@H]2O[C@@](C)(CC2=O)[C@@H](O)[C@H]2CC[C@@]4(CCC[C@@H](O4)[C@H](C)C(=O)O[C@H]4C[C@H]([C@]5(O)OCC[C@H](C)[C@@H]5O)O[C@H]4C=C1)O2)O3 |  | > 10 |  | > 10 |  | > 10 |  | > 10 |  | > 10 |  | > 10 |  | > 10 |  | > 10 |  | > 10 |  | > 10
7 | COc1ccc(N=C2C(=S)N(c3ccc(OC)cc3)/C(=N/S(=O)(=O)c3ccccc3)N2c2ccccc2)cc1 |  | 28.8 |  | 20.6 |  | 16.2 |  | > 100 |  | 18.1 |  | > 48.8 |  | > 66.4 |  | 28.1 |  | > 100 |  | 10.6
8 | COc1ccc(N=Nc2c3c(c(O)c4ccccc24)CCC(C)(C)O3)cc1 |  | 37.9 |  | 32.4 |  | 28.6 |  | 32 |  | 33.2 |  | 71.8 |  | 39.1 |  | 35.5 |  | > 100 |  | 63.9
9 | COc1ccc(N=NC(=Nc2ccc(F)cc2)c2ccc(N(CCC#N)CCC#N)cc2)cc1 |  | 84.4 |  | > 100 |  | 57.3 |  | 76.3 |  | > 100 |  | > 100 |  | > 100 |  | 77.7 |  | > 100 |  | 52.8
10 | COC(=O)C1=C(C)NC(C)=C([N+](=O)[O-])C1c1cccc(N=O)c1 (centres undefined) |  | 32 |  | 25.4 |  | 29 |  | 58.4 |  | 28.6 |  | 28.7 |  | > 100 |  | 29.5 |  | > 100 |  | 32.6
11 | O=C(Nc1ccc(-n2cc(-c3ccncc3)c(-c3ccc(O)c(Cl)c3)n2)cc1)Nc1cccc(Cl)c1Cl | 2.54 | 25 | 4.5 | > 32.5 | 9.79 | > 32.5 | 13.8 | > 32.5 | 6.67 | > 32.5 | 12.8 | > 32.5 | 30.6 | > 32.5 | 14.5 | > 32.5 | 5.4 | > 32.5 | 1.52 | 10.3
12 | N#Cc1c(C#N)c(-c2ccccc2)n(-c2ccccc2)c1N |  | > 100 |  | > 100 |  | > 100 |  | > 100 |  | > 100 |  | > 100 |  | > 100 |  | > 100 |  | > 100 |  | > 100
13 | O=C(O)c1c2c(cc3c1CC1(Cc4ccccc4C1=O)C3)CCC2 (centres undefined) |  | > 100 |  | 16 |  | > 100 |  | 96 |  | > 100 |  | > 100 |  | 9.56 |  | > 100 |  | 33.6 |  | > 100
14 | Cc1cn2c(C)csc2c1P(=O)(OC(C)C)OC(C)C |  | > 100 |  | > 100 |  | > 100 |  | > 100 |  | > 100 |  | > 100 |  | > 100 |  | > 100 |  | > 100 |  | > 100
15 | Cc1c2ccncc2c(C)c2c1[nH]c1ccccc12 |  | 2.08 | 0.762 | 2.21 |  | 6.02 |  | 3.62 |  | 2.65 | 0.695 | 2.13 | 0.819 | > 100 |  | 3.76 |  | 5.09 | 1.45 | 6.03
16 | N#CC(=N)c1ncn(-c2ccccc2N)c1N |  | > 100 |  | > 100 |  | > 100 |  | > 100 |  | > 100 |  | > 100 |  | > 100 |  | > 100 |  | > 100 |  | > 100
